# According to US8273723B2, “Compositions and methods for improved glycoprotein sialylation” (Sigma-Aldrich Co. LLC, priority 2007, dated 2012):
# Experiments:
# CHO Neu3 = experiment: Sialidase assay in the presence of sialidase inhibitors, CHO Neu3; type: biochemical, CHO (Chinese hamster ovary)
# Procedure: (§1) Enzymatic sialidase activity studies were performed to confirm that the proteins coded by these two new genes having the expected functions in CHO cells. Briefly, the coding regions for the Neu1 (SEQ ID NO:1) and Neu3 (SEQ ID NO:3) genes, as well as the coding region of the previously reported Neu2 gene (Ferrari et al. (1994) Glycobiology 4(3):367-373) were cloned into pcDNA3.1 mammalian expression vectors. The expression constructs then were transfected into COS7 cells to overexpress the sialidase proteins. The pcDNA3.1 vector alone was also transfected into COS7 cells as the mock transfection. An expression construct containing green fluorescence protein (GFP) was cotransfected into the COS7 cells to normalize the transfection efficiency.
# (§2) Twenty-four hours after transfection, the cells were lysed by sonication. The cell debris was removed by centrifugation at 1000×g for 10 min at 4° C. and the supernatant factions were collected for enzymatic activity. The sialidase assay was performed as previously described (Gramer et al. (1993) Biotechnol Prog 9: 366-373) using 1 mM of 4-methylumbelliferone-Neu5Ac as substrate. For each lysate, 100 μg of protein was used in the assay. The assay was performed in triplicate. […] In fact, the Neu3 protein had more than approximately 6-15 times as much activity as Neu2. […]
# [1] = tested on: proteins encoded by the CHO Neu1, Neu2, and Neu3 genes; experiment: Sialidase assay in the presence of sialidase inhibitors, all sialidases; type: biochemical, CHO (Chinese hamster ovary); conditions: two concentrations, FIG. 2
# Procedure: as §1, §2
# Neu1 mRNA = experiment: Q-RT PCR of Neu1 mRNA in stably shRNA-transduced CHO-hIFNγ cells; type: cell-based, CHO (Chinese hamster ovary); conditions: FIG. 7A
# Procedure: (§3) The expression of each of the three CHO sialidase genes was knocked down using small interfering RNA (siRNA) technologies. Based on the cDNA sequences, several siRNAs against the CHO sialidase genes (Neu1, Neu2, and Neu3) were designed and synthesized for each gene. These siRNAs were transfected into a CHO cell line stably expressing human interferon gamma (CHO-hIFNγ). The transfections were performed in duplicate. Forty-eight hours after transfection, the cells were harvested. RNA and protein were isolated from the transfected cells. Reverse transcription polymerase chain reaction, (RT-PCR) and quantitative RT-PCR (Q-RT-PCR) using gene-specific primers were performed using standard procedures.
# (§4) DNA fragments encoding the effective siRNAs for each sialidase gene (Neu1-S4, Neu2-S3, Neu3-S2) were cloned into the pLKO.1-puro shRNA expression vector. After DNA sequencing confirmation, plasmid DNAs were transfected into HEK293 cells to produce lentivirus packed with shRNA cassettes. After infection of suspension CHO-hIFNγ cells with lentivirus containing shRNA cassettes and puromycin selection, CHO-hIFNγ cells harboring shRNA cassettes for Neu1, Neu2 and Neu3 genes were obtained. Q-RT PCR was performed to confirm gene-silencing effects at the level of mRNA (FIG. 7). […]
# [2] = tested on: hIFNγ protein produced by CHO-hIFNγ cells; experiment: Sialic acid content of purified hIFNγ from shRNA CHO cells by HPLC; type: cell-based, CHO (Chinese hamster ovary); conditions: for levels of sialic acid in hIFNγ protein versus non-target shRNA control: day 6; for sialic acid content of hIFNγ protein: n=4
# Procedure: The levels of sialic acid were analyzed by HPLC in human IFNγ protein produced by the sialidase shRNA targeted cells and non-target shRNA control cells. Spent media samples were collected from 5 L bioreactor cultures at stationary phase (day 6, cell viability around 95%) and death phase (day 13, cell viability around 20%). Human interferon gamma proteins were purified from cell culture supernatants by immunoaffinity purification. Briefly, after centrifugation and filtration to remove cell debris, 30 ml of a protein sample was loaded on an affinity column conjugated with hIFNγ antibody. After washing the column, hIFNγ protein was eluted with elution buffer. Purification was carried out on an AKTA Explorer 100 chromatographic system (Amersham Biosciences). The purified protein was quantified by ELISA as previously described.
# The sialylation of purified hIFNγ proteins were analyzed by HPLC. Briefly, 50 μg of purified hIFNγ protein sample was lyophilized and resuspended in 100 μl of ultrapure water with 2N acetic acid. The sample was hydrolyzed at 80° C. for 3 hours. Then the sample was filtered and speed-vac dried. Released sialic acid residues were derivatized with a fluorogenic compound, 1,2-diamino-4,5-(methylenedioxy)benzene (DMB), followed by HPLC using C18 reverse phase column.
# Neu2 mRNA = experiment: Q-RT PCR of Neu2 mRNA in stably shRNA-transduced CHO-hIFNγ cells; type: cell-based, CHO (Chinese hamster ovary); conditions: FIG. 7B
# Procedure: as §3, §4
# Neu3 mRNA = experiment: Q-RT PCR of Neu3 mRNA in stably shRNA-transduced CHO-hIFNγ cells; type: cell-based, CHO (Chinese hamster ovary); conditions: FIG. 7C
# Procedure: as §3, §4
# [3] = tested on: sialidase activity in CHO-hIFNγ cells; experiment: Sialidase activity assay in CHO-hIFNγ cells harboring shRNA; type: cell-based, CHO (Chinese hamster ovary); conditions: stable shRNA, FIG. 8
# Procedure: (§5) Twenty-four hours after transfection, the cells were lysed by sonication. The cell debris was removed by centrifugation at 1000×g for 10 min at 4° C. and the supernatant factions were collected for enzymatic activity. The sialidase assay was performed as previously described (Gramer et al. (1993) Biotechnol Prog 9: 366-373) using 1 mM of 4-methylumbelliferone-Neu5Ac as substrate. For each lysate, 100 μg of protein was used in the assay. The assay was performed in triplicate. […] In fact, the Neu3 protein had more than approximately 6-15 times as much activity as Neu2.
# as §4, with “7). The mRNA expression knockdown of Neu1 (Neu1-S4) was over 95% in Neu1-shRNA cells (FIG. 7A), about 50% knockdown with Neu2 (Neu2-S3) in Neu2-shRNA cells (FIG. 7B), and over 70% knockdown with Neu3 (Neu3-S2) in Neu3-shRNA cells (FIG. 7C).” for “7).”
# [4] = Sialidase assay on lysates of COS7 cells overexpressing CHO sialidase proteins; type: biochemical, CHO (Chinese hamster ovary)
# Procedure: as §1, §5
molecule,measurement,setting,value
CC(=O)N[C@H]1[C@H]([C@H](O)[C@H](O)CO)OC(C(=O)O)=C[C@@H]1O [Neu5Ac2en],decrease of sialidase activity,CHO Neu3; 0.1 mM inhibitor,about 30%
same,reduction of sialidase activity,CHO Neu3; 0.5 mM inhibitor,about 60%
same,inhibitory effect on sialidase activity (comparison of the two inhibitors),[1],greater inhibitory effects than Neu5Ac
"Neu1-S4: siRNA/shRNA against CHO Neu1; sense GGACACUACGCGUCAUCUGtt (SEQ ID NO 10), antisense CAGAUGACGCGUAGUGUCCtt (SEQ ID NO 11) (sense GGACACUACGCGUCAUCUGTT; antisense CAGAUGACGCGUAGUGUCCTT; chemistry not given here; listed as Cricetulus griseus)",mRNA expression knockdown of Neu1,Neu1 mRNA,over 95%
same,levels of sialic acid in hIFNγ protein versus non-target shRNA control,[2],not significantly different
same,sialylation of hIFNγ versus non-target shRNA control,[2]; day 13,no obvious improvement
"Neu2-S3: siRNA/shRNA against CHO Neu2; sense GACGGAUGAGCAUGCAGAUtt (SEQ ID NO 14), antisense AUCUGCAUGCUCAUCCGUCtt (SEQ ID NO 15) (sense GACGGAUGAGCAUGCAGAUTT; antisense AUCUGCAUGCUCAUCCGUCTT; chemistry not given here; listed as Cricetulus griseus)",mRNA expression knockdown of Neu2,Neu2 mRNA,about 50%
same,levels of sialic acid in hIFNγ protein versus non-target shRNA control,[2],not significantly different
same,sialic acid content of hIFNγ protein,[2]; day 6 (stationary phase),1.945±0.111 pmol sialic acid/pmol hIFNγ
same,sialic acid content of hIFNγ protein,[2]; day 13 (death phase),4.948±0.150 pmol sialic acid/pmol hIFNγ
"Neu3-S2: siRNA/shRNA against CHO Neu3; sense GUACCAGCCGUGUGUUACUtt (SEQ ID NO 18), antisense AGUAACACACGGCUGGUACtt (SEQ ID NO 19) (sense GUACCAGCCGUGUGUUACUTT; antisense AGUAACACACGGCUGGUACTT; chemistry not given here; listed as Cricetulus griseus)",mRNA expression knockdown of Neu3,Neu3 mRNA,over 70%
same,sialidase activity compared to non-target shRNA control,[3],most dramatic reduction
same,sialic acid content of hIFNγ protein,[2]; day 6 (stationary phase),2.133±0.101 pmol sialic acid/pmol hIFNγ
"CHO Neu3: CHO plasma membrane-associated sialidase, 417 aa, SEQ ID NO:4 (protein, listed as Cricetulus griseus) MEEVSACSLNSTLFQQEHQKGTTYRIPALLYIPPSHTFLAFAEKRSSSKDVDALHLVLRRGVMKGHSVEWGPLQPLMEATLPGHRTMNPCPVWEQSTSRVLLFFICVPDRVTEHWQIRSGKNAARLCFLCSQDAGCSWGEVKDLTEEVIGSELKHWATFAVGPGHGIRLQSGRLIIPTYAYYFSCRFLCFPCSVKPHSLMIYSDDLGVTWHHGKLIGPQVTGECQVAEVTGTSGNLVLYCNARTPNRFRAESFSTDYGDCFQKPTLNTQLCEPRYGCQGSIVSFQPLKMPFSQDPIGKAAPTTQKSPLLDSFLEREEGVGRPSGTWLLYSHPTSKKRRINLGIYYNRNPLEVTCWSRPWILHCGPCGYSDLAVVEEQGLFACLFECGQEHECEQIAFRLFSVQEVLSCEDCTGPSRD",sialidase activity compared to negative control (mock transfection) and positive control (Neu2),"[4]; 100 μg lysate protein, 1 mM 4-methylumbelliferone-Neu5Ac, normalized with GFP readings",significant sialidase activities
same,sialidase activity relative to Neu2,"[4]; more than approximately, lysates of transfected COS7 cells",6-15 times
same,sialic acid content of hIFNγ protein,[2]; day 13 (death phase),5.175±0.414 pmol sialic acid/pmol hIFNγ
